Assay results taken from patent US10375962B2, “Heterocycle derivatives as pesticides” (BAYER CROPSCIENCE AKTIENGESELLSCHAFT, priority 2016, dated 2019).
Where two headings read alike, the source gives them in different places.

Legend:
[1] = test system: green peach aphid (Myzus persicae); assay: Myzus persicae - spray test (Chinese cabbage leaf discs); format: in vivo; details: after 5 days
Experimental: Solvent: 78 parts by weight of acetone • • 1.5 parts by weight of dimethylformamide Emulsifier: alkylaryl polyglycol ether
(§1) To produce a suitable active compound formulation, 1 part by weight of active compound is dissolved with the stated parts by weight of solvent and made up with water containing an emulsifier concentration of 1000 ppm until the desired concentration is attained. To produce further test concentrations, the formulation is diluted with emulsifier-containing water.
Discs of Chinese cabbage leaves (Brassica pekinensis) infested by all stages of the green peach aphid (Myzus persicae) are sprayed with an active compound formulation of the desired concentration.
After 5 days, the efficacy in % is determined. 100% means that all the aphids have been killed and 0% means that none of the aphids have been killed.

[2] = log P by HPLC on a reversed-phase column (C 18), EEC Directive 79/831 Annex V.A8; format: physicochemical; details: for chromatographic logP: reversed-phase HPLC column (C 18)
Description: Called log P (HCOOH) in the table.
Called log P (neutral) in the table.

[3] = test system: caterpillars of the armyworm (Spodoptera frugiperda); assay: Spodoptera frugiperda - spray test; format: in vivo; details: maize leaf discs, after 7 days
Experimental: Solvent: 78.0 parts by weight of acetone • • 1.5 parts by weight of dimethylformamide Emulsifier: alkylaryl polyglycol ether […] To produce further test concentrations, the formulation is diluted with emulsifier-containing water. Leaf discs of maize (Zea mays) are sprayed with an active compound preparation of the desired concentration and, after drying, populated with caterpillars of the armyworm (Spodoptera frugiperda).

[4] = test system: L1 larvae of the Australian sheep blowfly (Lucilia cuprina); assay: Lucilia cuprina test; format: in vivo; details: application rate 100 ppm; after 2 days
Experimental: (§2) Solvent: dimethyl sulphoxide
To produce a suitable active compound formulation, 10 mg of active compound are mixed with 0.5 ml of dimethyl sulphoxide, and the concentrate is diluted with water to the desired concentration.
About 20 L1 larvae of the Australian sheep blowfly (Lucilia cuprina) are transferred into a test vessel containing minced horsemeat and the active compound formulation of the desired concentration.
After 2 days, the kill in % is determined. 100% means that all the larvae have been killed; 0% means that no larvae have been killed.

[5] = test system: unfed adult cat fleas (Ctenocephalides felis); assay: Ctenocephalides felis - oral test; format: in vivo; details: application rate 100 ppm in citrated cattle blood; after 2 days
Experimental: as §2
For the purpose of production of a suitable active compound formulation, 10 mg of active compound are mixed with 0.5 ml of dimethyl sulphoxide. Dilution with citrated cattle blood gives the desired concentration.
About 20 unfed adult cat fleas (Ctenocephalides felis) are placed into a chamber which is closed at the top and bottom with gauze. A metal cylinder whose bottom end is closed with parafilm is placed onto the chamber. The cylinder contains the blood/active compound formulation, which can be imbibed by the fleas through the parafilm membrane.
After 2 days, the kill in % is determined. 100% means that all of the fleas have been killed; 0% means that none of the fleas have been killed.

[6] = test system: larvae of the mustard beetle (Phaedon cochleariae); assay: Phaedon cochleariae - spray test; format: in vivo; details: after 7 days
Experimental: Solvent: 78.0 parts by weight of acetone • • 1.5 parts by weight of dimethylformamide
Emulsifier: alkylaryl polyglycol ether
as §1
Discs of Chinese cabbage leaves (Brassica pekinensis) are sprayed with an active compound formulation of the desired concentration and, after drying, populated with larvae of the mustard beetle (Phaedon cochleariae).
After 7 days, the efficacy in % is determined. 100% means that all the beetle larvae have been killed and 0% means that none of the beetle larvae have been killed.

[7] = acidic range, pH 2.7, 0.1% aqueous formic acid/acetonitrile, 55° C.
[8] = neutral range, pH 7.8, 0.001 molar aqueous ammonium hydrogencarbonate/acetonitrile, 55° C.

| SMILES | LOGP_HCOOH (log P (HCOOH)) ([2]; pH 2.7) | LOGP_NEUTRAL (log P (neutral)) ([2]; pH 7.8) | efficacy ([6]; application rate 100 g/ha) [%] | efficacy ([6]; application rate 500 g/ha) [%] | other results |
| --- | --- | --- | --- | --- | --- |
| CCS(=O)(=O)c1ccc(-n2nnc3ccc(Cl)nc32)nc1-c1nc2cc(C(F)(F)F)ncc2n1C [Example I-37] | 2.96 | 3.00 |  |  | efficacy ([1]; application rate 100 g/ha): 90% |
| CCS(=O)(=O)c1ccc(N2Cc3cc(OC)ccc3C2=O)nc1-c1nc2cc(C(F)(F)F)ncc2n1C [Example I-38] | 3.29 | 3.32 |  |  | efficacy ([3]; application rate 100 g/ha): 100% |
| CCS(=O)(=O)c1ccc(-c2ccc3cn(C)nc3c2)nc1-c1nc2cc(C(F)(F)F)ncc2n1C [Example I-14] | 2.71 | 2.65 |  |  | efficacy ([3]; application rate 100 g/ha): 100%; efficacy ([3]; application rate 500 g/ha): 100%; efficacy ([1]; application rate 500 g/ha): 70% |
| CCS(=O)(=O)c1ccc(-n2c(=O)[nH]c3ccc(Cl)cc32)nc1-c1nc2cc(C(F)(F)F)ncc2n1C [Example I-48] | 2.97 |  |  |  |  |
| CCS(=O)(=O)c1ccc(-c2cc3cc(C#N)ccc3[nH]2)nc1-c1nc2cc(C(F)(F)F)ncc2n1C [Example I-3] | 3.18 | 3.08 | 100 | 100 | efficacy (kill) [4]: 100%; efficacy (kill) [5]: 95%; efficacy ([3]; application rate 100 g/ha): 100%; efficacy ([3]; application rate 500 g/ha): 83% |
| CCS(=O)(=O)c1ccc(N2C(=O)c3ccccc3C2=O)nc1-c1nc2cc(C(F)(F)F)ncc2n1C [Example I-40] | 2.92 | 2.96 | 100 | 100 |  |
| CCS(=O)(=O)c1ccc(-c2cn(C)c3ccccc23)nc1-c1nc2cc(C(F)(F)F)ncc2n1C [Example I-1, 2-[3-(Ethylsulphonyl)-6-(1-methyl-1H-indol-3-yl)pyridin-2-yl]-3-methyl-6-(trifluoromethyl)-3H-imidazo[4,5-c]pyridine] |  |  |  |  | chromatographic logP ([2]; acidic range, pH 2.7, 0.1% aqueous formic acid/acetonitrile, 55° C., read-out: LOGP_HCOOH (log P (HCOOH))): 3.55; chromatographic logP ([2]; neutral range, pH 7.8, 0.001 molar aqueous ammonium hydrogencarbonate/acetonitrile, 55° C., read-out: LOGP_NEUTRAL (log P (neutral))): 3.45 |
| CCS(=O)(=O)c1ccc(-n2ccc3nccc(Cl)c32)nc1-c1nc2cc(C(F)(F)F)ncc2n1C [Example I-19] | 2.51 | 2.69 | 100 | 100 | efficacy ([1]; application rate 100 g/ha): 90%; efficacy ([1]; application rate 500 g/ha): 70% |
| CCS(=O)(=O)c1ccc(-n2ccc3cc(Cl)ccc32)nc1-c1nc2cc(C(F)(F)F)ncc2n1C [Example I-25] |  |  |  |  | LOGP_HCOOH (log P (HCOOH)) [2, 7]: 4.10; LOGP_NEUTRAL (log P (neutral)) [2, 8]: 4.09 |
| CC[S+]([O-])c1ccc(-n2cc3cccnc3n2)nc1-c1nc2cc(C(F)(F)F)ncc2n1C (stereo not shown) [Example I-13] | 2.46 | 2.45 |  |  |  |
| CCS(=O)(=O)c1ccc(-n2ncc3ccncc32)nc1-c1nc2cc(C(F)(F)F)ncc2n1C [Example I-7] |  |  | 100 | 100 |  |
| CCS(=O)(=O)c1ccc(-n2c(=O)oc3ccccc32)nc1-c1nc2cc(C(F)(F)F)ncc2n1C [Example I-41] |  |  |  |  | LOGP_HCOOH (log P (HCOOH)) [2, 7]: 3.25; LOGP_NEUTRAL (log P (neutral)) [2, 8]: 3.26 |
| CCS(=O)(=O)c1ccc(-n2nc3ccc(Cl)nn3c2=O)nc1-c1nc2cc(C(F)(F)F)ncc2n1C [Example I-42] | 2.42 | 2.38 | 100 |  |  |
| CCS(=O)(=O)c1ccc(-n2cc3c(Cl)cc(C(F)(F)F)cn3c2=O)nc1-c1nc2cc(C(F)(F)F)ncc2n1C [Example I-12] | 4.27 | 4.18 | 100 | 100 | efficacy ([3]; application rate 100 g/ha): 100%; efficacy ([3]; application rate 500 g/ha): 100%; efficacy ([1]; application rate 100 g/ha): 90%; efficacy ([1]; application rate 500 g/ha): 90% |
| CCS(=O)(=O)c1ccc(-n2ccc3ccccc32)nc1-c1nc2cc(C(F)(F)F)ncc2n1C [Example I-26] |  |  |  |  | LOGP_HCOOH (log P (HCOOH)) [2, 7]: 3.72; LOGP_NEUTRAL (log P (neutral)) [2, 8]: 3.65 |
| CCS(=O)(=O)c1ccc(N2Cc3cccnc3C2=O)nc1-c1nc2cc(C(F)(F)F)ncc2n1C [Example I-46] | 2.26 | 2.30 |  |  |  |
